In publication PMC6271858, “Identification of Natural Compound Carnosol as a Novel TRPA1 Receptor Agonist” (Molecules, 2014):
“Also recorded” adds a separate entry of the source. Where two headings read alike, the source gives them in different places.

Key:
[1] = target: TRPM8 (Homo sapiens, UniProt Q7Z2W7); test: Compound selectivity calcium mobilization assay in HEK293/TRPM8 cells; format: cell-based
Experimental: HEK 293 cell lines stably expressing human TRPA1, TRPM8 and TRPV3 channels, respectively, were established by HD Bioscience Co. Ltd (SH, China) according to the cell line generation procedure in published articles of our laboratory. All HEK293 cell lines used in this study were routinely maintained in DMEM containing 10% FBS, 100 U/mL penicillin, and 100 μg/mL streptomycin in a humidified atmosphere of 5% CO2 at 37 °C. HEK293/TRPA1, HEK293/TRPM8 and HEK293/TRPV3 cells were incubated with complete culture medium along with 50 μg/mL hygromycin B.
(§1) To study the specificity of the action target of identified compounds, the activating effect on TRPM8 and TRPV3 was tested. HEK293 cell lines stably expressing TRPM8 and TRPV3 receptors were separately stimulated by a serious concentrations of identified compounds using calcium mobilization assay as described above.

[2] = system: HEK293 host cells; test: Compound specificity assay, calcium influx in HEK293 host cells; format: cell-based, human; conditions: compared with 0.25% DMSO group; positive control 5 μM ATP
Experimental: To observe whether the identified compounds induce calcium influx in HEK293 host cells, the cells were treated with various concentrations of tested compounds. Meanwhile, 5 μM ATP and 0.25% DMSO were used as the positive and negative control, respectively. The regulatory activity of tested samples was defined as follows: (3) Activity%=RFUcompound/RFUpositive×100

[3] = system: HEK293/TRPA1 cells; test: Compound cytotoxicity assay (CellTiter-Glo, luciferase coupled ATP quantitation); format: cell-based, human; conditions: 2 h incubation, compared to the control group
Experimental: HEK293/TRPA1 cells were seeded at 3.5 × 10^4 per well into 96-well clear-bottom black plates and incubated in 5% CO2 at 37 °C overnight. Different concentrations of the compound were added into the 96-well plates and incubated in 5% CO2 at 37 °C for 2 h. Luminescence was read by Envision 2100 multilabel reader to detect cells’ viability following incubation with CellTiter-Glo reagent for 10 min.

[4] = target: T1, TRPV3 (Homo sapiens, UniProt Q8NET8); test: Compound selectivity calcium mobilization assay in HEK293/TRPV3 cells; format: cell-based; conditions: series of concentrations
T1 sequence (Q8NET8 1-790): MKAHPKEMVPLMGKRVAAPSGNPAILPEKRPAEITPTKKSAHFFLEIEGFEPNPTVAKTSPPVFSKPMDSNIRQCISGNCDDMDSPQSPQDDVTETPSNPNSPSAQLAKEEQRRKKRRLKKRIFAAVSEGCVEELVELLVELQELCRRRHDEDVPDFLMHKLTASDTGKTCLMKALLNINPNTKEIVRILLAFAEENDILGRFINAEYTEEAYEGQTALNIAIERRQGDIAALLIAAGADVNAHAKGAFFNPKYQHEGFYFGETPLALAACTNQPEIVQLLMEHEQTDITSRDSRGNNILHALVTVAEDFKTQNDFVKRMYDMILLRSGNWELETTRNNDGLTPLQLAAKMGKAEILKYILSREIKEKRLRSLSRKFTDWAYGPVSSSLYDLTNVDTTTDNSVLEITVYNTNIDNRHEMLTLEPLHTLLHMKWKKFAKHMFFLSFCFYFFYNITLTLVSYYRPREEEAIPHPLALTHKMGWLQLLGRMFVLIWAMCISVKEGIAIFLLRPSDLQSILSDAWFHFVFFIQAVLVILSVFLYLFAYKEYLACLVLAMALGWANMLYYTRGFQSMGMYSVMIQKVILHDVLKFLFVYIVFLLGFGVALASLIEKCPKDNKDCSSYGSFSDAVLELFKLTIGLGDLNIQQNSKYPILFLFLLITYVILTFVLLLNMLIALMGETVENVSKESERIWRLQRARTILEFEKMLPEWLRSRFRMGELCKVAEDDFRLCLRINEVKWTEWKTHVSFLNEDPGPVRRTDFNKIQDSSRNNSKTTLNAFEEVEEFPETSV
Experimental: All HEK293 cell lines used in this study were routinely maintained in DMEM containing 10% FBS, 100 U/mL penicillin, and 100 μg/mL streptomycin in a humidified atmosphere of 5% CO2 at 37 °C. HEK293/TRPA1, HEK293/TRPM8 and HEK293/TRPV3 cells were incubated with complete culture medium along with 50 μg/mL hygromycin B.
as §1

[5] = target: human TRPA1 (Homo sapiens, UniProt O75762); test: Calcium mobilization agonist assay in HEK293/TRPA1 cells; format: cell-based; conditions: for EC80 value: agonist concentration used to evoke the antagonist assay
Chain of human TRPA1 (O75762 whole entry): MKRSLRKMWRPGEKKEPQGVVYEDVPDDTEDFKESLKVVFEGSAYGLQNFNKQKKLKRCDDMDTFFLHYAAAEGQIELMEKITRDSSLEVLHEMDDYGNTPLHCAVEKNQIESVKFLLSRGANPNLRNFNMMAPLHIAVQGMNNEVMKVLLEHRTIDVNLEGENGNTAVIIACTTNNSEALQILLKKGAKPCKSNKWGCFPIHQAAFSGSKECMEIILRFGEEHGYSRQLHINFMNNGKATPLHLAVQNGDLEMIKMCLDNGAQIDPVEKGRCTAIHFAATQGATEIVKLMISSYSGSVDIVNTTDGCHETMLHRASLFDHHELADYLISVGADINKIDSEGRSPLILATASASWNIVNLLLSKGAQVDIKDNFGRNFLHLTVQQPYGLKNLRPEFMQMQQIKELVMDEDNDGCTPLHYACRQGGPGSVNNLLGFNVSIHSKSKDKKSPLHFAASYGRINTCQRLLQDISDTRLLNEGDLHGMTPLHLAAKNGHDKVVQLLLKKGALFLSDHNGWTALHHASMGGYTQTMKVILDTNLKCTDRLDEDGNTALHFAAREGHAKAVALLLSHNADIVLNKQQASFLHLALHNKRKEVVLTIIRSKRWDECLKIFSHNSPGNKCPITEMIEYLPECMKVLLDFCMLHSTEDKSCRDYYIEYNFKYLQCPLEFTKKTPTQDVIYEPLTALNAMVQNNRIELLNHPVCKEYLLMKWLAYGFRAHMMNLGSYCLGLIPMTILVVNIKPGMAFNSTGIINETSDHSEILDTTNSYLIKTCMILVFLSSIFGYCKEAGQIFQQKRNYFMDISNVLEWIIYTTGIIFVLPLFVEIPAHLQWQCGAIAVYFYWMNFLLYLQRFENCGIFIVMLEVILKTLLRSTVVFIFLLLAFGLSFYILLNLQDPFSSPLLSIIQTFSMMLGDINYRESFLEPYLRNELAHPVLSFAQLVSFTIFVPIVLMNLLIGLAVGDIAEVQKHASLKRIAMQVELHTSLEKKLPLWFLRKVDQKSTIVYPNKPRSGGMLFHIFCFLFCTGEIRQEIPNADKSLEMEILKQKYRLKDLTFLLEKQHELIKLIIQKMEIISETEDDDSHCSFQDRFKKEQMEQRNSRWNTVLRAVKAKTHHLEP
Experimental: HEK293/TRPA1 cells were seeded at a density of 3.5 × 10^4 per well into 96-well clear-bottom black plates coated with matrigel and incubated in 5% CO2 at 37 °C overnight. On the day of assay, the growth medium was replaced by 100 µL loading buffer containing a final concentration of 4 μM Ca^2+-sensitive dye Fluo-4 AM and 2 mM acid red 1 in HBSS. The plate was then incubated at 37 °C in dark for 30 min before calcium signal read out. For antagonists study, 80 µL loading buffer was added into each well and 20 µL HBSS containing tested compound was added 10 min prior to calcium-flux measurement.
Cells were transferred to a Flexstation II (Molecular Devices) for experimentation. Basal fluorescence was recorded for 16 s before agonist application. The integrated Flexstation II fluidics system added 25 µL compound (5× solution) from the agonist compound plate to the assay plate containing 100 µL loading buffer solution. Relative fluorescence units (RFU) were read by FlexStation II at 37 °C with an excitation wavelength of 485 nm and an emission wavelength of 525 nm. The fluorescence intensity was read every 1.52 s for 80 s.
Ninety µM CA and 0.25% DMSO were used as the positive and negative control respectively during primary screening of TRPA1 agonist. Hits above the cutoff value (50%) were picked for retesting, percentage of increased calcium signal was calculated as following equation: (2) Activity%=RFUcompound−RFUnegative/RFUpositive−RFUnegative×100

Chain of TRPM8 (Q7Z2W7 whole entry): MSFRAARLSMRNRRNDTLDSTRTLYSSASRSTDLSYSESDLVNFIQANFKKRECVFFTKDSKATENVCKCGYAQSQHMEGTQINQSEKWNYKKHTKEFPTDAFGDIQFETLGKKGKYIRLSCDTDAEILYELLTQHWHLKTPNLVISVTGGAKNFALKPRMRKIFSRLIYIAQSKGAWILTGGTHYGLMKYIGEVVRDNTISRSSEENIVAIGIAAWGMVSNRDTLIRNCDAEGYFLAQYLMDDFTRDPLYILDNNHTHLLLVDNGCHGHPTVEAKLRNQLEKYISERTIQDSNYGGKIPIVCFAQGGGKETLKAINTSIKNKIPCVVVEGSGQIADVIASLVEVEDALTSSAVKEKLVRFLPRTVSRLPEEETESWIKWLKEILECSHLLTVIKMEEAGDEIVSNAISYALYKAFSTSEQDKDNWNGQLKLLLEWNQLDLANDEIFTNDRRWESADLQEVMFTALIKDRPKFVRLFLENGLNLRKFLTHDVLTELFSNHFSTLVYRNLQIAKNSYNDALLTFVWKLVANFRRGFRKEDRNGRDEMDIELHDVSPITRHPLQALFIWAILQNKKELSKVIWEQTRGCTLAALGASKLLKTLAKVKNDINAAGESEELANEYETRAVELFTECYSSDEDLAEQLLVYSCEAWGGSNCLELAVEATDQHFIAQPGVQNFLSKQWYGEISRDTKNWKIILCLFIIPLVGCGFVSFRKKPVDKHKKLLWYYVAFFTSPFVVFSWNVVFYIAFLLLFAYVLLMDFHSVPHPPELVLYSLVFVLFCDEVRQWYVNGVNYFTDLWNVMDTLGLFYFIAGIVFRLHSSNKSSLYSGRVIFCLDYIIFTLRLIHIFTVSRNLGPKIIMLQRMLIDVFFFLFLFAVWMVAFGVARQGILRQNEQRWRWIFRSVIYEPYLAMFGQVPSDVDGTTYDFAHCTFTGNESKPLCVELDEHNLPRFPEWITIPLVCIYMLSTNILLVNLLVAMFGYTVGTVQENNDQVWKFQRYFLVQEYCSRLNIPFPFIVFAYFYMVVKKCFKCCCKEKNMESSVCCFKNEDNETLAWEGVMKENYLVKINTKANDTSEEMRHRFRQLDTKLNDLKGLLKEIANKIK

With `CC(C)c1cc2c(c(O)c1O)[C@@]13CCCC(C)(C)[C@@H]1C[C@@H]2OC3=O` [carnosol, Carnosol] the “Stimulation signal in HEK/TRPM8 cell line” value ([1]; series of concentrations, calcium mobilization) was “no stimulation signal”, the “Calcium signal in HEK293 host cells” value [2] was “no significant difference” and the “Cytotoxicity on HEK293/TRPA1 cells” value [3] was “no significant cytotoxicity”. For the same compound, the “Stimulation signal in HEK/TRPV3 cell line” value [4] was “no stimulation signal”, the “Calcium signal in primary screening” value ([5]; 10 μM, HEK293/TRPA1 cells, positive control 90 µM CA, negative control 0.25% DMSO) was “showed significant difference compared with the negative control; also recorded: comparable to the positive control” and the EC80 value ([5]; HEK293/TRPA1 cells) was 30 µM. It also gave an EC50 ([5]; HEK293/TRPA1 cells, calcium mobilization, agonist concentration-response, read-out: EC50) of 12.5 µM.
In the case of `O=C1NC(c2cccc([N+](=O)[O-])c2)=CCN1c1ccccc1O` [icilin, Icilin, reference compound], the EC50 ([1]; HEK293/TRPM8 cells, calcium response (data not shown)) is reported as 170 nM.
`CC(C)c1cc2c(c(O)c1O)[C@@]1(C(=O)O)CCCC(C)(C)[C@@H]1CC2` [carnosic acid, Carnosic acid] was tested, and the “Calcium signal in HEK293 host cells” value [2] was “acted on HEK293 host cells” and the “Calcium signal in HEK293/TRPA1 cell line” value ([5]; at 90 µM) was “caused calcium signal”.
Compound `O=C/C=C/c1ccccc1` [CA, cinnamaldehyde, reference compound] has an EC50 [5] of 31.5 µM and an EC80 value ([5]; HEK293/TRPA1 cells) of 90 µM.
For `C[C@H]1[C@H](C)CC[C@]2(C(=O)O)CC[C@]3(C)C(=CC[C@@H]4[C@@]5(C)CC[C@H](O)C(C)(C)[C@@H]5CC[C@]43C)[C@H]12` [ursolic acid, Ursolic acid], the “Calcium signal in HEK293/TRPA1 cell line” value ([5]; up to 90 µM) was “no significant calcium signal”.
